In assay [1] the target is Ba/F3 EGFR L858R/T790M/C797S (LTC) (Homo sapiens, UniProt P00533, T790M/C797S/L858R, cells depend on it). Put plainly: Cell growth inhibitory ability in Ba/F3 cells overexpressing EGFR L858R/T790M/C797S (MTS, CellTiter 96 AQueous). To be noted: 72 hours, MTS absorbance at 490 nm, read-out: Ba/F3 EGFR triple mutant L858R/T790M/C797S, IC50. The format is cell-based. An outline of the steps: (§1)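 Ba/F3 cells expressing EGFR L858R/T790M or L858R/T790M/C797S, grown in RPMI/10% FBS with 1 μg/ml puromycin, seeded 24 h then treated with compound (0.1–10000 nM final) for 72 h at 37° C. MTS read at 490 nm after 2–4 h, % of 0 nM control, IC50 calculated.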

For assay [2], the target named is Ba/F3 EGFR L858R/T790M (LT) (Homo sapiens, UniProt P00533, T790M/L858R, cells depend on it). Put plainly: Cell growth inhibitory ability in Ba/F3 cells overexpressing EGFR L858R/T790M (MTS, CellTiter 96 AQueous). The class given is cell-based. To be noted: 72 hours, MTS absorbance at 490 nm, read-out: Ba/F3 EGFR double mutant L858R/T790M, IC50. An outline of the steps:
as §1

Bounds are passed on as bounds.

For the molecule `Cc1cc(C(=O)N[C@@H](c2cc3ccccc3[nH]2)c2cc(F)ccc2O)cc(-c2ccc(CN3CCC(N(C)C)CC3)cn2)c1` [Example 42], the GI50 in assay [1] was 30 to 200 nM; in assay [2], under 30 nM.

For `Cc1cc(C(=O)N[C@@H](c2cc3ccccc3[nH]2)c2cc(F)ccc2O)cc(-c2ncc(N3CC[C@@H](N)C3)cn2)c1` [Example 44, 3-[5-[(3R)-3-aminopyrrolidine-1-yl]pyrimidine-2-yl]-N—[(R)-(5-fluoro-2-hydroxy-phenyl)-(1H-indole-2-yl)methyl]-5-methyl-benzamide], the GI50 in assay [1] and in assay [2] was under 30 nM each time.

As for `CCN(CC)C1CCN(c2cnc(-c3cc(C)cc(C(=O)N[C@@H](c4cc5ccccc5[nH]4)c4cc(F)ccc4O)c3)nc2)CC1` [Example 45, (R)-3-(5-(4-(diethylamino)piperidine-1-yl)pyrimidine-2-yl)-N-((5-fluoro-2-hydroxyphenyl)(1H-indole-2-yl)methyl)-5-methylbenzamide], the GI50 in assay [1] and in assay [2] was under 30 nM throughout.

Turning to “(R)-3-(6-((4-(dimethylamino)piperidine-1-yl)methyl)pyridine-3-yl)-N-((5-fluoro-2-hydroxyphenyl)(1H-indole-2-yl))methyl)-5-methylbenzamide [Example 43]”, the values for the GI50 in assay [1] and in assay [2] were 30 to 200 nM and under 30 nM, respectively.

These data come from patent US20240246948A1, “BENZAMIDE DERIVATIVE, METHOD FOR PREPARING SAME, AND PHARMACEUTICAL COMPOSITION FOR PREVENTION OR TREATMENT OF CANCER CONTAINING SAME AS ACTIVE INGREDIENT” (HK INNO.N CORPORATION, priority 2021, published 2024).
